Measurements published in BindingDB's records for patent US20240307415 (Jiangsu Simcere Pharmaceutical, 2024).
pEC50: −log10 of the molar value.

Biological target: T1, Glucocorticoid receptor (Homo sapiens, UniProt P04150)
T1 sequence (P04150 whole entry): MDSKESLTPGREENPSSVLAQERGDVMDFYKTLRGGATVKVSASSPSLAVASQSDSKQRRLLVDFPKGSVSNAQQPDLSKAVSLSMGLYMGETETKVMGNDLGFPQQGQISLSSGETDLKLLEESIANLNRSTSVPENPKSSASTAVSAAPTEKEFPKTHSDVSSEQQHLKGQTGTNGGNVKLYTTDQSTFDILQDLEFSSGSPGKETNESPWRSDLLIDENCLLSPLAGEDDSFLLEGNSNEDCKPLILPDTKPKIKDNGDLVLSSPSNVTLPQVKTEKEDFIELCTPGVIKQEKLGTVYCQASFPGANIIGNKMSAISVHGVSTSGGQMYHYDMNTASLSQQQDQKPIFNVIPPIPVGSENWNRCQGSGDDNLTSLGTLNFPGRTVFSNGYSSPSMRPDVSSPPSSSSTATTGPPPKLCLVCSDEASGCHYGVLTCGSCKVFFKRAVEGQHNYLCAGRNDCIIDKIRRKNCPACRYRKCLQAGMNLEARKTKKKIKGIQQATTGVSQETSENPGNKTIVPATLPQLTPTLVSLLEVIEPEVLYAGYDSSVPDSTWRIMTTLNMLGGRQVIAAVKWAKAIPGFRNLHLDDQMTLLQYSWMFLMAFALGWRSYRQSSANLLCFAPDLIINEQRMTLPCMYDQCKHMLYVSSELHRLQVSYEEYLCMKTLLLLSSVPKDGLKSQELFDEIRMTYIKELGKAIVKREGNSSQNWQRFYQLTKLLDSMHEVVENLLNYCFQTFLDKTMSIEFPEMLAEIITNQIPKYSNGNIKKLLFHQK
Assay: Binding Activity of Compound of the Present Invention to Glucocorticoid Receptor GR
Protocol: The binding activity of the compound to GR was determined using the Polarscreen Glucocorticoid Receptor Assay Kit, Red (brand: Thermo, Cat. No: A15898). […] The highest concentration was 100 μM, 8 concentrations in total.

C[C@]12C=CC(=O)C=C1CC[C@@H]1[C@@H]2[C@@H](O)C[C@@]2(C)[C@H]1C[C@H]1O[C@@H](c3ccc(Cc4ccc5cc[nH]c5c4)cc3)O[C@]12C(=O)CO [US20240307415, Compound 003]
pEC50: 6.92
